pEC50: −log10 of the molar value.
How the values were obtained:
TET1 = TET1 (Homo sapiens, UniProt Q8NFU7); experiment: AlphaScreen of Bc-dependent TET1-VHL ternary complex formation (weaker than TET3; no TET1 degradation in cells); type: binding
[1] = molecular target: TET3 (Tet methylcytosine dioxygenase 3) (Homo sapiens, UniProt O43151); experiment: AlphaScreen of Bc-dependent TET3-VHL ternary complex formation; supported by co-IP and degradation of TET3 in human MDMs; type: binding
Sequence of TET3 (Tet methylcytosine dioxygenase 3) (O43151 850-1795 limits assumed): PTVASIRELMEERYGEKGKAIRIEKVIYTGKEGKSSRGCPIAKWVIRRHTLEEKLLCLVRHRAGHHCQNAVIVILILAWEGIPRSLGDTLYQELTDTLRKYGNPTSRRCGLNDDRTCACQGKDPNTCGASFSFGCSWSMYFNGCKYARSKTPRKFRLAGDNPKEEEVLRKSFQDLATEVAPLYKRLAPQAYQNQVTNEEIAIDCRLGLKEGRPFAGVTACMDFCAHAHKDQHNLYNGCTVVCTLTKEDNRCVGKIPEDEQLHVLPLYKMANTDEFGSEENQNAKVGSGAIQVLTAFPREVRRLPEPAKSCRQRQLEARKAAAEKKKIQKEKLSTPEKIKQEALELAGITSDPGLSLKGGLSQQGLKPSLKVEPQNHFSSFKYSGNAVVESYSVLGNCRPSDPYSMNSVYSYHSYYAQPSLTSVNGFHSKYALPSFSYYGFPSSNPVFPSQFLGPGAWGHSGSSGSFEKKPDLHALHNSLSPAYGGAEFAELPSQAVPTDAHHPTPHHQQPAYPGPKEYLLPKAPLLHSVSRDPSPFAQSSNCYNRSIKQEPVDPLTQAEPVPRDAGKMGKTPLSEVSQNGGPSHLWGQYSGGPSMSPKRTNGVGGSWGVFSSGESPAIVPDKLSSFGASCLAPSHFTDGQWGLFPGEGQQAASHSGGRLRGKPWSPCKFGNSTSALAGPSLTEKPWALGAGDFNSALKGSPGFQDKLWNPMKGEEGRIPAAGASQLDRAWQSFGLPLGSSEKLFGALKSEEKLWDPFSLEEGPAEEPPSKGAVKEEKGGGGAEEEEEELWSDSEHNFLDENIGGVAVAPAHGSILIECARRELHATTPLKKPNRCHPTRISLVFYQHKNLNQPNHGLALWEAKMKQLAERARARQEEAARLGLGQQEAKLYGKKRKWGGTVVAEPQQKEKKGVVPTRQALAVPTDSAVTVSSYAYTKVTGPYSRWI
Sequence of TET3 (Tet methylcytosine dioxygenase 3) (P40337 whole entry partner): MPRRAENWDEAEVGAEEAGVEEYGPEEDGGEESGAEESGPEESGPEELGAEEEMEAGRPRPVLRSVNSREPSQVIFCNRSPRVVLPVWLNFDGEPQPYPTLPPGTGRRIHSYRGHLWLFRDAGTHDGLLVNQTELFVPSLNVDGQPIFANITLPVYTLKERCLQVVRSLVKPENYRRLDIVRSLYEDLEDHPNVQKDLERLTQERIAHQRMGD

Sequence of TET1 (Q8NFU7 1418-2136 limits assumed): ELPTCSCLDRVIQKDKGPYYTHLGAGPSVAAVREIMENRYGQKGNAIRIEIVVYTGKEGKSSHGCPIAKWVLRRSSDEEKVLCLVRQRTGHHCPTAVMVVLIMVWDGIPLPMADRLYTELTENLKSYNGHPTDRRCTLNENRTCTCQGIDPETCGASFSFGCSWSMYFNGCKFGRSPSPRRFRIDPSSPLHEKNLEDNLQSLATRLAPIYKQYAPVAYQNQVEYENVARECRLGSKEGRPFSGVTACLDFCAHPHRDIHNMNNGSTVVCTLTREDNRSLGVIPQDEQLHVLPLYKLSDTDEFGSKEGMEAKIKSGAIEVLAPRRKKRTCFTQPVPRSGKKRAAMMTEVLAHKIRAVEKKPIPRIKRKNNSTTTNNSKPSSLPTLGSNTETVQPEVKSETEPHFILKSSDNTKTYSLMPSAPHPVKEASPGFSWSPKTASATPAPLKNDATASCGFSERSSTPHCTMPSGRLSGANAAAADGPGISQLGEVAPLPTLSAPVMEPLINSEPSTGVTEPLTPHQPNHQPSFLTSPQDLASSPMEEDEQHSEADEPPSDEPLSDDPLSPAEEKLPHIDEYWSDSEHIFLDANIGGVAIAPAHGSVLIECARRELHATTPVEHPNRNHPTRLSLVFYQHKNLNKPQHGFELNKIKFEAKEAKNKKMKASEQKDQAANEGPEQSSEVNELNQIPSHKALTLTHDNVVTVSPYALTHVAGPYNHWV
Sequence of TET1 (P40337 whole entry partner): as the sequence (P40337 whole entry partner) above

- pEC50 (TET1): 2.07
- pEC50 [1]: 4.30
SMILES: Nc1nc(=O)n(-c2cccc(-c3ccccc3)c2)cc1Cl [Bc, Bobcat339]

Source: publication PMC12578387, “TET3 is a common epigenetic immunomodulator of pathogenic macrophages” (The Journal of Clinical Investigation, 2025)
